From patent US20160256480A1, “THERAPEUTIC COMPOSITION FOR WOUND HEALING” (priority 2015, published 2016)

How the values were obtained:
[1] = Dissolution of beta-glucan in MilliQ Ultrapure water; type: physicochemical
Method: (§1) J774A.1 cells are mouse monocyte/macrophage cells. These cells are adherent and upon death will detach from the surface fo the culture flasks or coverslips. Cells were grown to approximately 80% confluence in 24-well plates on 12 mm coverslips overnight. Cells were grown in a minimum essential medium with insulin (IMEMZO, Irvine Scientific, Santa Ana, Calif.) with 5% fetal bovine serum (FBS, Atlanta Biologicals, Norcross, Ga.). Beta-glucan was dissolved with MilliQ Ultrapure water. […] Beta-glucan was diluted with IMEMZO media and added to the cells for the duration of the incubation. Cells were examined daily and phase-contrast images taken at specific intervals to capture the health of the cells. All images were captured at 200× magnification.

J774A.1 cells = experiment: Incubation of J774A.1 mouse macrophages with beta-glucan, phase-contrast examination of cell health; type: cell-based
Method: as §1
The beta-glucan was purchased from Sigma-Aldrich (CAS Number 9051-97-2; MDL number MFCD00466918). Beta-glucan source was Euglena gracilis.

Substance: beta-1,3-Glucan from Euglena gracilis [beta-glucan]
- solubility in water [1]: only partially dissolved
- effect on cell growth and proliferation (J774A.1 cells; 1 mg/ml beta-glucan over 48 hours): no adverse affect on the cell growth and proliferation
- increase in cell numbers (J774A.1 cells; 3 mg/ml beta-glucan, base media IMEMZO, 48 hours): increased in numbers at a rate that is typical in the base media
- visible pathological effects on cellular growth or survival (J774A.1 cells; 3 mg/ml beta-glucan, mouse macrophages, 48 hour culture period): did not pose any visible pathological effects on cellular growth or survival
- cell size and adherence (J774A.1 cells; 3 mg/ml beta-glucan, over the 48 hour culture period): did not decrease in size and remained adherent
